Literature values, collected in patent US20200281963A1, “HYDROGEN MOLECULE-CONTAINING PROPHYLACTIC OR THERAPEUTIC AGENT FOR OXIDATIVE DAMAGE IN INTRAOCULAR SURGERIES” (priority 2016, published 2020).

SMILES: [HH] [hydrogen molecules]
- amount of hydrogen molecules that can be dissolved (in 1 L of water at 25° C. at 1 atm): 17.5 mL
- amount of hydrogen molecules that can be dissolved (concentration) (water at 25° C. at 1 atm): approximately 0.8 mM
